Holding throughout (assay): DTP human tumour cell line panel, 48 h
Test [1] deals with HL-60(TB) leukemia.
Test [2] concerns HCT-15 colon.
The test system of test [3] is EKVX NSCLC.
Test [4] relates to OVCAR-4 ovarian.
Test [5] has as its system SR leukemia.
The subject of test [6] is K-562 leukemia.
The subject of test [7] is COLO 205 colon.
In test [8] the test system is LOX IMVI melanoma.
For test [9], the system named is UO-31 renal.
Test [10] has as its system RXF 393 renal.

Where “and” joins values, the source holds several entries; their conditions need not be identical. Equal entries are not always repeated.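 Test compounds were applied to cells in 96-well plates for 48 hours at 5 doses. GI50: concentration for 50% inhibition of growth. TGI: total growth inhibition.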

These results are taken from PubChem BioAssay (NCI).

One may read the TGI as the concentration at which net growth stops. The low end stands for more potent growth arrest, the high end for less potent growth arrest. What is called GI50 is the concentration giving 50% growth inhibition.

For `CCOC(=O)c1cc2cc3c4c(c2oc1=O)CCCN4CCC3`, the TGI in [1] was 45.8 µM; in [2], greater than 100 µM; in test [3], 80 µM; in test [4] it was greater than 100 µM; in test [5], greater than 100 µM; in [6] it was greater than 100 µM. Besides, the TGI was 57.1 µM in test [7], 62.7 µM in test [8], greater than 100 µM in [9] and 39.4 µM in [10].

For the compound `Nc1nonc1-c1nc2cnccc2n1C1CC1`, the GI50 was 5.32 µM in test [1]; 6.61 µM in [2]; 1.63 µM in [3]; 7.4 µM in test [4]; 3.81 µM in [5]; greater than 21 µM in test [6]. For the same compound, the GI50 in test [7] is 4.52 µM; in test [8] it was 6.54 µM; in test [9], 2.09 µM; in [10], 1.2 µM. Besides, the TGI was 14.6 µM in [1]; greater than 25 µM in test [2]; greater than 25 µM in test [3]; greater than 25 µM in test [4]; 15 µM in test [5]; greater than 25 µM in test [6]. Further, the TGI was greater than 14.4 µM in test [7], greater than 18 µM in test [8], greater than 25 µM in test [9] and 6.92 µM in test [10].

As to `COc1cccc(/C(C#N)=C/c2nc3c(N4CCOCC4)nc(Cl)nc3n2C)c1`, the GI50 was 1.46 µM in test [1]; 0.312 µM in test [2]; 1.44 µM in [3]; 1.23 µM in [4]; 0.355 µM in test [5]; 0.447 µM in [6]. The GI50 is 1.33 µM in test [7], 1.01 µM in [8], 0.48 µM in test [9] and 1.02 µM in test [10]. The TGI in test [1] came out at 3.96 µM; in [2], 1.3 µM; in test [3] it was 2.84 µM; in [4] it was 2.59 µM; in test [5], 2.44 µM; in test [6] it was 10.3 µM. Further, the TGI in test [7] is 3.09 µM; in test [8], 2.25 µM; in [9], 1.92 µM; in test [10], 2.23 µM.

As for `C=CCNc1nc2c(s1)C(=O)c1ccccc1C2=O`, the TGI in [1] was 4.02 µM; in test [2], 30.7 µM; in [3] it was 29 µM; in test [4], 26.4 µM; in test [5] it was greater than 100 µM; in [6], 35.8 µM. Moreover, the TGI in test [7] is 41.2 µM; in [8], 19.6 µM; in [9] it was 26.1 µM; in [10] it was 35.4 µM.

Turning to `O=C1/C(=C/c2cccc(Br)c2)COc2ccc(O)cc21`, the GI50 in test [1] is 1.88 µM; in test [2], 1.95 µM; in test [3], 4.78 µM; in [4], 3.55 µM; in test [5] it was 0.47 µM; in test [6], 1.24 µM. Moreover, the GI50 was 3.33 µM in test [7], 1.7 µM in [8], 1.51 µM in test [9] and 2.12 µM in [10]. Besides, the TGI in [1] is 5.75 µM; in [2], 7.88 µM; in test [3], 17.4 µM; in [4], 14.1 µM; in [5] it was 5.2 µM; in [6] it was 11 µM. In addition, the TGI in [7] was 11.1 µM; in [8], 3.41 µM; in test [9], 3.46 µM; in test [10] it was 5.99 µM.

For `FC(F)(c1ccc2ncccc2c1)c1nnc2ccc(-c3ccncc3)nn12`, the GI50 is greater than 100 µM in [1]; 60 µM in test [2]; 21.4 µM in [3]; greater than 100 µM in test [4]; greater than 100 µM in [5]; 52.7 µM in [6]. Moreover, the GI50 in test [7] is 91.1 µM; in [8], 49.6 µM; in [9], 19.2 µM; in [10], 16.4 µM. Besides, the TGI in [1], in test [2], in test [3], in test [4], in test [5] and in test [6] was greater than 100 µM throughout. Besides, the TGI was greater than 100 µM in test [7], greater than 100 µM in test [8], greater than 100 µM in test [9] and 83.8 µM in test [10].

In the case of `O=S(=O)(NC1=NCCN1C(=S)SN1CCn2c1nsc2=S)c1cccc2ccccc12`, the GI50 is 30.9 µM in test [1]; 26.3 µM in test [2]; 25.8 µM in [3]; 29.2 µM in test [4]; 10.2 µM in [5]; 16.1 µM in test [6]. The GI50 in [7] is 26.8 µM; in test [8] it was 20.4 µM; in test [9], 26.6 µM; in [10] it was 10.5 µM. The TGI in [1] was 99.3 µM; in [2] it was greater than 100 µM; in test [3] it was greater than 100 µM; in test [4] it was greater than 100 µM; in [5] it was 45.6 µM; in test [6], 44.6 µM. For the same compound, the TGI was greater than 100 µM in test [7], 55 µM in test [8], greater than 100 µM in test [9] and 67.2 µM in test [10].

For `CN(CCCCCl)P(=O)(OCCS(=O)(=O)CC(NC(=O)CCC(N)C(=O)O)C(=O)NC(C(=O)O)c1ccccc1)OCC1OC(n2ccc(N)nc2=O)C(F)(F)C1O` (stereo not drawn), the GI50 is 0.0339 µM in test [1]; 8.92 µM in test [2]; 11.4 µM in test [3]; greater than 100 µM in [4]; 0.303 µM in test [5]; 1.58 µM in [6]. Besides, the GI50 is 0.912 µM in test [7], 0.467 µM in test [8], less than 0.0213 µM in test [9] and 0.744 µM in test [10]. Besides, the TGI in test [1] is 5.23 µM; in [2], greater than 100 µM; in test [3], greater than 100 µM; in test [4], greater than 100 µM; in [5], 11 µM; in test [6], greater than 100 µM. Also, the TGI in test [7] was greater than 100 µM; in test [8], greater than 100 µM; in [9] it was 2.7 µM; in test [10], greater than 45.1 µM.

For `CCNC(=O)COc1ccc(Br)cc1Br`, the TGI in test [1] was greater than 100 µM; in test [2], greater than 100 µM; in test [3] it was 34.3 µM; in [4], greater than 100 µM; in test [5], greater than 100 µM; in test [6], greater than 100 µM. For the same compound, the TGI in test [7], in [8], in [9] and in [10] was greater than 100 µM throughout.

`C[C@@H]1C[C@H](C)CN(S(=O)(=O)c2ccc3c(NO)c4ccc(S(=O)(=O)N5C[C@H](C)C[C@H](C)C5)cc4c(N=O)c3c2)C1`: the GI50 in [1] was 0.185 µM; in test [2] it was 0.0717 µM; in test [3] it was 0.128 µM; in test [4], 0.17 µM; in [5], 0.0367 µM; in test [6] it was 0.0356 µM. For the same compound, the 50% growth inhibitory concentration (GI50) in test [7] was 0.172 µM; in [8], 0.105 µM; in [9] it was 0.167 µM; in [10] it was 0.158 µM. The TGI in test [1] was 0.448 µM; in [2], 0.211 µM; in test [3], 0.269 µM; in [4], 0.346 µM; in test [5], 0.215 µM; in test [6], 0.12 µM. In addition, the TGI in test [7] stood at 0.342 µM; in [8], 0.242 µM; in test [9], 0.338 µM; in test [10] it was 0.299 µM.

Take `CC(C)c1cnn2c(NCc3ccccc3)cc(NC[C@H]3CCNC[C@@H]3O)nc12`: the GI50 in [1] is 0.132 µM and 0.297 µM; in test [2] it was 2.94 µM and 2.69 µM; in [3], 0.861 µM and 0.645 µM; in [4] it was 0.304 µM and 0.597 µM; in test [5], 0.0481 µM and 0.0623 µM; in [6], 0.409 µM and 0.571 µM. Besides, the GI50 in test [7] is 0.179 µM and 0.21 µM; in [8], 0.0945 µM and 0.0967 µM; in test [9], 2 µM and 2.65 µM; in test [10] it was 0.352 µM and 1.03 µM. Further, the TGI in [1] was 0.584 µM and 1.71 µM; in test [2], 15.2 µM and 12.2 µM; in test [3], 8.2 µM and 6.07 µM; in test [4] it was 2.8 µM and 3.62 µM; in test [6], 11.3 µM and > 100 µM; in test [7], 0.476 µM and 0.749 µM. For the same compound, the TGI in test [8] is 1.49 µM and 0.542 µM; in [9], 11.8 µM and 12 µM; in test [10] it was 1.09 µM and 2.83 µM.

As to `O=c1/c(=C/c2ccccc2[N+](=O)[O-])sc2nc3ccccc3n12`, the TGI in test [1] is greater than 46.4 µM; in test [2], 31.6 µM; in test [3] it was greater than 100 µM; in [4], greater than 46.4 µM; in [5], 25 µM; in test [6], greater than 46.4 µM. In addition, the TGI in [7] is greater than 46.4 µM; in test [8] it was 31.9 µM; in test [9] it was greater than 46.4 µM; in test [10], 41.9 µM.

Turning to `CCNc1cc(-c2cccc(OC(F)(F)F)c2)nc2ccc(N3CCCC3)cc12`, the GI50 is 1.97 µM in test [1]; 1.71 µM in test [2]; 2.49 µM in [3]; 2.35 µM in test [4]; 1.57 µM in test [5]; 1.43 µM in test [6]. Moreover, the GI50 in [7] was 1.8 µM; in test [8], 1.69 µM; in test [9], 1.36 µM; in test [10], 1.18 µM. Besides, the TGI in [1] was 4.27 µM; in test [2], 5.96 µM; in [3], 11.1 µM; in test [4], 10.7 µM; in test [5] it was 5 µM; in [6], 4.3 µM. The TGI worked out at 4.21 µM in test [7], 3.26 µM in test [8], 2.71 µM in test [9] and 3.17 µM in test [10].

Take `COc1ccc2cc(/C=C/C(=O)c3ccc(Cl)cc3Cl)ccc2c1`: the GI50 in test [1] was 17.5 µM; in test [2], 31 µM; in test [3] it was 41.7 µM; in test [4] it was 74.1 µM; in [5], 9.19 µM; in test [6], 20.5 µM. The GI50 was 24.1 µM in [8], 36.6 µM in [9] and 20.4 µM in test [10]. Further, the TGI was 41 µM in test [1]; greater than 100 µM in [2]; greater than 100 µM in test [3]; greater than 100 µM in test [4]; 28.7 µM in [5]; 68.8 µM in [6]. Further, the TGI was 60.4 µM in test [8], greater than 100 µM in [9] and 65.6 µM in test [10].

With `N#Cc1ccccc1C(Cl)(Cl)c1cnccn1`, the TGI in [1] was 70.2 µM; in test [3], greater than 100 µM; in test [4], greater than 100 µM; in [5], greater than 100 µM; in test [6], greater than 100 µM; in test [7], greater than 100 µM. Moreover, the results for the TGI in test [8], in test [9] and in test [10] were 61 µM, greater than 100 µM and greater than 100 µM, respectively.

As to `O=C(Nc1cc(C(F)(F)F)ccc1Cl)c1ccc(NC2=C(Cl)C(=O)N(Cc3ccccc3)C2=O)cc1`, the GI50 in [1] is 3.08 µM; in test [2], 13.2 µM; in test [3], 46.6 µM; in test [4], 47.4 µM; in [5] it was 1.3 µM; in [6] it was 3.67 µM. Further, the values for the GI50 in [7], in test [8] and in test [10] were 16 µM, 4.11 µM and 23.7 µM, respectively. In addition, the TGI in test [1] is 9.33 µM; in test [2], greater than 100 µM; in test [3], greater than 100 µM; in [4] it was greater than 100 µM; in [5] it was 4.4 µM; in test [6] it was 19.6 µM. Moreover, the TGI was 35.6 µM in test [7], greater than 100 µM in test [8] and 73 µM in test [10].

On to `CC(Oc1ccc2c(-c3ccccc3)cc(=O)oc2c1)C(=O)O` (stereo not drawn), for which the TGI in test [1], in test [3], in test [4], in test [5], in test [6] and in [7] was greater than 100 µM each time. Besides, the TGI in [8], in [9] and in test [10] was greater than 100 µM throughout.
